Test results taken from US20220296535A1, “Antibacterial Dosage Regime Using Cannabinoids” (Botanix Pharmaceuticals Limited, priority 2019, published 2022).
Converted amounts (≈) assume the structure as drawn. “And” between values parts separate entries of the source, which are not always exact repeats. Identical values can stand only once. Counter-ions that a name gives are not always drawn. Like-named read-outs stand apart in the source and are kept apart here.

Key:
C. granulosum ATCC 25564 = experiment: Anaerobic MIC micro-broth dilution; assay type: cell-based, Cutibacterium granulosum; settings: Cutibacterium granulosum, ATCC25564, 48 h
S. aureus ATCC 43300 = experiment: Anaerobic MIC micro-broth dilution; assay type: cell-based, Staphylococcus aureus
[1] = test system: A. acidipropionici ATCC 25562; experiment: Anaerobic MIC micro-broth dilution; assay type: cell-based, Acidipropionibacterium acidipropionici
[2] = test system: 132 strains of Staphylococcus aureus (106 MRSA and 26 MSSA strains); experiment: MIC50/MIC90 micro-broth dilution, all strains
P. acnes ATCC 6919 = experiment: Anaerobic MIC micro-broth dilution; assay type: cell-based, Cutibacterium acnes (formerly Propionibacterium acnes)
[3] = test system: S. aureus MRSA (106 strains); experiment: MIC50/MIC90 micro-broth dilution, MRSA strains; assay type: cell-based, Staphylococcus aureus
[4] = test system: Staphylococcus aureus MRSA ATCC 43300 biofilm; experiment: Biofilm minimum inhibitory concentration (Biofilm MIC), crystal violet OD590; assay type: cell-based; settings: two technical replicates, ≥70% inhibition OD590; for Biofilm MIC (TSB + 5% Gluc) 07/112/18: first biological replicate; for Biofilm MIC (TSB + 5% Gluc) 14/112/18: second biological replicate
Protocol: (§1) The collaborator supplied sample as dry material. A stock solution at 10 mg/mL in neat DMSO (11.2 mg in 1.12 mL of DMSO) was prepared. The highest concentration tested in the assay was 128 μg/mL and 2% DMSO as a final concentration using 1/20 dilution to achieve these concentrations.
Bacteria (Staphylococcus aureus, ATCC 43300; MRSA) was cultured on Tryptic Soy Broth (TSB, BD, Cat. No. 211825) at 37° C. overnight, then it was diluted 1:100 in fresh TSB supplemented with 5% glucose. 100 μL were added across the 96-well of polystyrene (PS) (Corning; Cat. No. 3370) plate, leaving row H as media Control. Plates were incubated at 37° C. for 48 h to generate the biofilm. The plates were prepared in duplicate.
The antibiotic controls and CBD were serially diluted in TSB with 5% glucose two-fold across the wells of polystyrene (PS) 96-well plates (Corning; Cat. No. 3370), plated in duplicate. All plates had flat bottom wells and were covered with low-evaporation lids.
48 h after incubation, bacteria plates were carefully washed three times with 200 μL/well of saline solution (0.9% NaCl, Baxter Healthcare; Cat. No. AHF7124) using manual pipette to remove the planktonic cells but leave the biofilm adhered to the plate wells. Then, 100 μL of diluted controls and CBD were transferred into the washed plates containing the biofilm. Then, these plates were incubated at 37° C. for 24 h.
Next day, plates were washed three times with saline solution, then fixed with 100 μL/well of 99% methanol for 15 minutes. Once the biofilm was fixed, 100 μL/well 0.1% Crystal Violet Stain (Sigma; Cat No. C0775-25G) was added for 20 minutes and used as indicator of biofilm formation, followed by three times washing and dry well. To dissolve the crystal violet, 150 μL/well of methanol was added to allow for biofilm MIC analysis.
The biofilm formation was determined by optical density read at 590 nm (OD590). The percentage of biofilm formation was evaluated comparing the average, standard deviation and percentage of confidence of the media control (Row H) against the rest of the plate.
Analysis was performed using Microsoft Excel.

[5] = test system: Staphylococcus aureus ATCC 43300; experiment: Broth MIC (Example 1); assay type: cell-based; settings: for MIC: Staphylococcus aureus
Protocol: as §1

[6] = test system: S. aureus MSSA (26 strains); experiment: MIC50/MIC90 micro-broth dilution, MSSA strains
[7] = test system: high-level mupirocin-resistant isolate 329; experiment: MIC microtiter broth dilution (Example 9); assay type: cell-based; settings: Staphylococcus aureus; MRSA strain 329
Protocol: (§2) Strains used: ATCC 29213 (standard control), ATCC 43300, low-level mupirocin-resistant isolate 815, high-level mupirocin-resistant isolage 329, high-level mupirocin-resistant isolate 993.
(§3) All strains prepared as described in “Bacterial Preparation” section above with the following differences: inocula were prepared in Müller-Hinton broth (MHB) rather than RPMI, and were diluted 1:10,000 following wash for an inoculum concentration of ˜5×10^4 CFU/mL.
(§4) Using a multichannel pipet, 100 μL of MHB was added to each of the wells of the 96-well plates (round bottom/U-bottom). Stock solutions of antibiotic were prepared at 2× the highest assay concentration (mupirocin at 4096 μg/mL and CBD at 100 μg/mL). 100 μL of this broth was added to each of the broth-containing wells in column 1 of the plate, and mixed by pipetting the full volume 6-7 times, for a final concentration of 2048 μg/mL mupirocin or 50 μg/mL CBD. […]
(§5) 5 μL of each inoculum was added to the appropriate wells (various wells were left without inoculation and used to correct the absorbance of the CBD-containing wells and as negative controls). […] Plate was read by a plate reader at 600 nm.
(§6) Inhibition was determined to have occurred in the first well with a difference in OD600 of <0.05 from the uninfected wells with the same concentration of antimicrobial, provided inhibition growth continued through all higher concentrations. […]

[8] = test system: high-level mupirocin-resistant isolate 993; experiment: MIC microtiter broth dilution (Example 9); assay type: cell-based; settings: Staphylococcus aureus; MRSA strain 993
Protocol: as §2, §3, §4, §5, §6

[9] = A. acidipropionici ATCC 25562, anaerobic chamber, BHI, 48 h
[10] = S. aureus ATCC 43300, anaerobic chamber, BHI, 48 h
[11] = Acidipropionibacterium acidipropionici, ATCC25562, 48 h
[12] = ATCC43300, read-out: Broth MIC, TSB + 5% Glucose
[13] = Cutibacterium acnes, ATCC6919, 48 h
[14] = ATCC43300, read-out: Broth MIC, CAMHB

SMILES	MIC (C. granulosum ATCC 25564)	MIC range ([2]; S. aureus spp. ALL)	Biofilm MIC (TSB + 5% Gluc) 07/112/18 [4]	Biofilm MIC (TSB + 5% Gluc) 14/112/18 [4]	MIC50 ([2]; Staphylococcus aureus)	MIC90 ([2]; Staphylococcus aureus)	MIC50 ([3]; Staphylococcus aureus, MRSA)	MIC90 ([3]; Staphylococcus aureus, MRSA)	MIC [5, 12]	MIC50 ([6]; Staphylococcus aureus, MSSA)	MIC90 ([6]; Staphylococcus aureus, MSSA)	MIC [5, 14]	also measured
CC[C@H]1OC(=O)[C@H](C)[C@@H](O[C@H]2C[C@@](C)(OC)[C@@H](O)[C@H](C)O2)[C@H](C)[C@@H](O[C@@H]2O[C@H](C)C[C@H](N(C)C)[C@H]2O)[C@](C)(O)C[C@@H](C)C(=O)[C@H](C)[C@@H](O)[C@]1(C)O [Erythromycin]	0.125 µg/mL (≈ 0.17 µM)												MIC (S. aureus ATCC 43300; Staphylococcus aureus, ATCC43300, 48 h): > 32 µg/mL; MIC [1, 9]: 4/2
CCC[C@@H]1C[C@@H](C(=O)N[C@@H]([C@H]2O[C@H](SC)[C@H](O)[C@@H](O)[C@H]2O)[C@H](C)Cl)N(C)C1.Cl.O [Clindamycin, Clindamycin hydrochloride monohydrate]		0.03 to 64 µg/mL	>64 µg/mL	>64 µg/mL									MIC50 ([2]; S. aureus spp. ALL): 0.125 µg/mL; MIC90 ([2]; S. aureus spp. ALL): 64 µg/mL; MIC (S. aureus ATCC 43300; [10]): >32 µg/mL; MIC (P. acnes ATCC 6919; P. acnes ATCC 6919, anaerobic chamber, BHI, 48 h): 0.125 µg/mL; MIC50 ([3]; S. aureus MRSA): 0.125 µg/mL; MIC90 ([3]; S. aureus MRSA): 64 µg/mL; Broth MIC ([5]; CAMHB): >64 µg/mL; Broth MIC ([5]; TSB + 5% Glucose): >64 µg/mL; MIC50 ([6]; S. aureus MSSA): 0.125 µg/mL; MIC90 ([6]; S. aureus MSSA): 0.1875 µg/mL; MIC [1, 9]: 0.125 µg/mL
Cc1onc(-c2ccccc2)c1C(=O)N[C@@H]1C(=O)N2[C@@H]1SC(C)(C)[C@@H]2C(=O)O [Oxacillin sodium salt hydrate]													MIC (S. aureus ATCC 43300; [10]): 64/16/8; MIC [1, 11]: 2 µg/mL
CCCCCCCCCC(=O)N[C@@H](Cc1c[nH]c2ccccc12)C(=O)N[C@H](CC(N)=O)C(=O)N[C@@H](CC(=O)O)C(=O)N[C@@H]1C(=O)NCC(=O)N[C@@H](CCCN)C(=O)N[C@@H](CC(=O)O)C(=O)N[C@H](C)C(=O)N[C@@H](CC(=O)O)C(=O)NCC(=O)N[C@H](CO)C(=O)N[C@@H]([C@H](C)CC(=O)O)C(=O)N[C@@H](CC(=O)c2ccccc2N)C(=O)O[C@@H]1C [Daptomycin, reference compound]		0.5 to 16 µg/mL	32 µg/mL and 16 µg/mL	16 µg/mL	2 µg/mL (≈ 1.23 µM)	4 µg/mL (≈ 2.47 µM)	2 µg/mL (≈ 1.23 µM)	4 µg/mL (≈ 2.47 µM)	32 µg/mL	2 µg/mL (≈ 1.23 µM)	2 µg/mL (≈ 1.23 µM)		
C/C(=C\C(=O)OCCCCCCCCC(=O)O)C[C@@H]1OC[C@H](C[C@@H]2O[C@H]2[C@@H](C)[C@H](C)O)[C@@H](O)[C@H]1O [Mupirocin]	> 32 µg/mL	0.125 to 64 µg/mL	0.25 µg/mL and 0.125 µg/mL	0.25 µg/mL	0.5 µg/mL (≈ 0.999 µM)	0.5 µg/mL (≈ 0.999 µM)	0.5 µg/mL (≈ 0.999 µM)	0.5 µg/mL (≈ 0.999 µM)	0.25 µg/mL	0.5 µg/mL (≈ 0.999 µM)	0.5 µg/mL (≈ 0.999 µM)	0.25 µg/mL (≈ 0.499 µM)	MIC [7]: 256 to 2050 µg/mL (≈ 511 to 4090 µM); MIC [8]: 256 to 2050 µg/mL (≈ 511 to 4090 µM); MIC (P. acnes ATCC 6919; [13]): > 32 µg/mL; MIC [1, 11]: > 32 µg/mL
CN[C@H](CC(C)C)C(=O)N[C@H]1C(=O)N[C@@H](CC(N)=O)C(=O)N[C@H]2C(=O)N[C@H]3C(=O)N[C@H](C(=O)N[C@H](C(=O)O)c4cc(O)cc(O)c4-c4cc3ccc4O)[C@H](O)c3ccc(c(Cl)c3)Oc3cc2cc(c3O[C@@H]2O[C@H](CO)[C@@H](O)[C@H](O)[C@H]2O[C@H]2C[C@](C)(N)[C@H](O)[C@H](C)O2)Oc2ccc(cc2Cl)[C@H]1O [Vancomycin]	0.25 µg/mL (≈ 0.173 µM)	0.5 to 64 µg/mL	4 µg/mL	4 µg/mL	1 µg/mL (≈ 0.69 µM)	2 µg/mL (≈ 1.38 µM)	1 µg/mL (≈ 0.69 µM)	2 µg/mL (≈ 1.38 µM)	1 µg/mL	1 µg/mL (≈ 0.69 µM)	1 µg/mL (≈ 0.69 µM)	0.5 µg/mL (≈ 0.345 µM)	MIC (P. acnes ATCC 6919; [13]): 0.25 µg/mL (≈ 0.173 µM)
COc1cc(Cc2cnc(N)nc2N)cc(OC)c1OC [Trimethoprim]			8 µg/mL	16 µg/mL and >64 µg/mL					4 µg/mL			1 µg/mL (≈ 3.44 µM)	
